Results reported in US4401660A, “Ester derivatives of 5-O-mycaminosyl tylonolide and method of using same” (Eli Lilly and Company, priority 1981, dated 1983).

Tests used:
[1] = tested on: Staphylococcus epidermidis EPI1; assay: MIC, standard agar-dilution assay (Table II); assay type: cell-based; parameters: unit not given here
Procedure: (§1) The MIC's in Table II were determined by standard agar-dilution assays. The MIC's in Table III were obtained using a conventional broth-dilution microtiter test.

[2] = tested on: Streptococcus Group D 9960; assay: MIC, standard agar-dilution assay (Table II); assay type: cell-based; parameters: unit not given here
Procedure: as §1

[3] = tested on: Staphylococcus aureus X1.1; assay: MIC, standard agar-dilution assay (Table II); assay type: cell-based; parameters: unit not given here
Procedure: as §1

[4] = tested on: Haemophilus influenzae R252; assay: MIC, standard agar-dilution assay (Table II); assay type: cell-based; parameters: unit not given here; conditions: Haemophilus influenzae R252, ampicillin-resistant strain
Procedure: as §1

[5] = tested on: Staphylococcus aureus X400; assay: MIC, standard agar-dilution assay (Table II); assay type: cell-based; parameters: unit not given here; conditions: Staphylococcus aureus X400, methicillin-resistant strain
Procedure: as §1

[6] = tested on: Haemophilus influenzae Holt; assay: MIC, standard agar-dilution assay (Table II); assay type: cell-based; parameters: unit not given here; conditions: ampicillin-sensitive strain
Procedure: as §1

[7] = tested on: Staphylococcus epidermidis EPI2; assay: MIC, standard agar-dilution assay (Table II); assay type: cell-based; parameters: unit not given here
Procedure: as §1

[8] = tested on: Staphylococcus aureus S13E; assay: MIC, standard agar-dilution assay (Table II); assay type: cell-based; parameters: unit not given here
Procedure: as §1

[9] = tested on: Streptococcus Group D X66; assay: MIC, standard agar-dilution assay (Table II); assay type: cell-based; parameters: unit not given here
Procedure: as §1

[10] = tested on: Staphylococcus aureus V41; assay: MIC, standard agar-dilution assay (Table II); assay type: cell-based; parameters: unit not given here; conditions: Staphylococcus aureus V41, penicillin-resistant strain
Procedure: as §1

[11] = tested on: Streptococcus pyogenes C203; assay: MIC, standard agar-dilution assay (Table II); assay type: cell-based; parameters: unit not given here
Procedure: as §1

[12] = tested on: Streptococcus pneumoniae Park I; assay: MIC, standard agar-dilution assay (Table II); assay type: cell-based; parameters: unit not given here
Procedure: as §1

[13] = tested on: Pasteurella multocida 60A; assay: MIC, broth-dilution microtiter test (Table III); assay type: cell-based; parameters: unit not given here; conditions: avian isolate
Procedure: as §1

[14] = tested on: Mycoplasma synoviae; assay: MIC, broth-dilution microtiter test (Table III); assay type: cell-based; parameters: unit not given here
Procedure: as §1

[15] = tested on: Mycoplasma gallisepticum; assay: MIC, broth-dilution microtiter test (Table III); assay type: cell-based; parameters: unit not given here
Procedure: as §1

[16] = tested on: Streptococcus sp. 80; assay: MIC, broth-dilution microtiter test (Table III); assay type: cell-based; parameters: unit not given here
Procedure: as §1

[17] = tested on: Staphylococcus aureus; assay: MIC, broth-dilution microtiter test (Table III); assay type: cell-based; parameters: unit not given here
Procedure: as §1

[18] = tested on: Mycoplasma hyorhinis; assay: MIC, broth-dilution microtiter test (Table III); assay type: cell-based; parameters: unit not given here
Procedure: as §1

[19] = tested on: Pasteurella multocida 17E; assay: MIC, broth-dilution microtiter test (Table III); assay type: cell-based; parameters: unit not given here; conditions: bovine isolate
Procedure: as §1

[20] = tested on: Pasteurella multocida; assay: Treatment of Pasteurella infections in chicks (Table V); assay type: in vivo, one-day-old chicks; conditions: Pasteurella multocida, sc, 4 h; 30 mg/kg by subcutaneous injection one and four hours post challenge; read-out: Deaths in Treated Chicks/Number Treated (converted)
Procedure: Certain OMT ester derivatives are active in vivo against Pasteurella infections. Table V summarizes the results of tests in which the ester derivatives were administered to one-day-old chicks at a dosage level of 30 mg/kg by subcutaneous injection one and four hours post challenge of the chicks with Pasteurella multocida (0.1 ml of a 10^-3 dilution of a 20-hour tryptose broth culture of avian P. multocida given subcutaneously). All nonmedicated infected chicks (ten in each control group) died within 24 hours of Pasteurella challenge.

`CCCCC(=O)OCC1C=C(C)C=CC(=O)C(C)CC(CC=O)C(OC2OC(C)C(O)C(N(C)C)C2O)C(C)C(O)CC(=O)OC1CC` (centres unmarked) [Compound 20] was tested, and the “minimal inhibitory concentration (MIC)” value [1] was 0.25, the “minimal inhibitory concentration (MIC)” value [2] was 0.5 and the “minimal inhibitory concentration (MIC)” value [3] was 0.25. The “minimal inhibitory concentration (MIC)” value [4] was 2, the “minimal inhibitory concentration (MIC)” value [5] was 0.5 and the “minimal inhibitory concentration (MIC)” value [6] was 2. The “minimal inhibitory concentration (MIC)” value [7] was 0.25, the “minimal inhibitory concentration (MIC)” value [8] was 0.25 and the “minimal inhibitory concentration (MIC)” value [9] was 0.5. The “minimal inhibitory concentration (MIC)” value [10] was 0.25, the “minimal inhibitory concentration (MIC)” value [11] was 0.25 and the “minimal inhibitory concentration (MIC)” value [12] was 0.06. The “minimal inhibitory concentration (MIC)” value [13] was 3.12, the “minimal inhibitory concentration (MIC)” value [14] was less than 0.05 and the “minimal inhibitory concentration (MIC)” value [15] was less than 0.05. The “minimal inhibitory concentration (MIC)” value [16] was 0.39, the “minimal inhibitory concentration (MIC)” value [17] was 0.39 and the “minimal inhibitory concentration (MIC)” value [18] was 3.12. The “minimal inhibitory concentration (MIC)” value [19] was 1.56 and the mortality at 30 mg/kg [20] was 0%.

In the case of `CCC1OC(=O)CC(O)C(C)C(OC2OC(C)C(OC(C)=O)C(N(C)C)C2OC(C)=O)C(CC=O)CC(C)C(=O)C=CC(C)=CC1COC(=O)CC(C)C` (centres unmarked) [Compound 21, 2',4'-Di-O-acetyl-23-O-i-valeryl-OMT], the “minimal inhibitory concentration (MIC)” value [1] is reported as 0.5, the “minimal inhibitory concentration (MIC)” value [2] is reported as 0.5 and the “minimal inhibitory concentration (MIC)” value [3] is reported as 0.5. The “minimal inhibitory concentration (MIC)” value [4] was 8, the “minimal inhibitory concentration (MIC)” value [5] was 1 and the “minimal inhibitory concentration (MIC)” value [6] was 2. The “minimal inhibitory concentration (MIC)” value [7] was 0.5, the “minimal inhibitory concentration (MIC)” value [8] was 0.5 and the “minimal inhibitory concentration (MIC)” value [9] was 0.5. For the same molecule, the “minimal inhibitory concentration (MIC)” value [10] was 0.5, the “minimal inhibitory concentration (MIC)” value [11] was 0.5 and the “minimal inhibitory concentration (MIC)” value [12] was 0.5. For the same molecule, the “minimal inhibitory concentration (MIC)” value [13] was 1.56, the “minimal inhibitory concentration (MIC)” value [14] was less than 0.05 and the “minimal inhibitory concentration (MIC)” value [15] was less than 0.05. The “minimal inhibitory concentration (MIC)” value [16] was 0.195, the “minimal inhibitory concentration (MIC)” value [17] was 0.39 and the “minimal inhibitory concentration (MIC)” value [18] was 0.78. For the same molecule, the “minimal inhibitory concentration (MIC)” value [19] was 1.56 and the mortality at 30 mg/kg [20] was 100%.

For `CCCCCCCC(=O)OCC1C=C(C)C=CC(=O)C(C)CC(CC=O)C(OC2OC(C)C(OC(C)=O)C(N(C)C)C2OC(C)=O)C(C)C(O)CC(=O)OC1CC` (centres unmarked) [Compound 23], the “minimal inhibitory concentration (MIC)” value [1] was 0.5, the “minimal inhibitory concentration (MIC)” value [2] was 1 and the “minimal inhibitory concentration (MIC)” value [3] was 0.25. The “minimal inhibitory concentration (MIC)” value [4] was 8, the “minimal inhibitory concentration (MIC)” value [5] was 1 and the “minimal inhibitory concentration (MIC)” value [6] was 8. The “minimal inhibitory concentration (MIC)” value [7] was 0.5, the “minimal inhibitory concentration (MIC)” value [8] was 0.5 and the “minimal inhibitory concentration (MIC)” value [9] was 1. The “minimal inhibitory concentration (MIC)” value [10] was 0.5, the “minimal inhibitory concentration (MIC)” value [11] was 0.5 and the “minimal inhibitory concentration (MIC)” value [12] was 0.25. The “minimal inhibitory concentration (MIC)” value [13] was 6.25, the “minimal inhibitory concentration (MIC)” value [14] was 0.39 and the “minimal inhibitory concentration (MIC)” value [15] was 0.097. The “minimal inhibitory concentration (MIC)” value [16] was 0.39, the “minimal inhibitory concentration (MIC)” value [17] was 0.78 and the “minimal inhibitory concentration (MIC)” value [18] was 3.12. The “minimal inhibitory concentration (MIC)” value [19] was 6.25 and the mortality at 30 mg/kg [20] was 100%.

For `CCCCCCCC(=O)OCC1C=C(C)C=CC(=O)C(C)CC(CC=O)C(OC2OC(C)C(O)C(N(C)C)C2O)C(C)C(O)CC(=O)OC1CC` (centres unmarked) [Compound 24], the “minimal inhibitory concentration (MIC)” value [1] was 0.25, the “minimal inhibitory concentration (MIC)” value [2] was 0.5 and the “minimal inhibitory concentration (MIC)” value [3] was 0.25. The “minimal inhibitory concentration (MIC)” value [4] was 4, the “minimal inhibitory concentration (MIC)” value [5] was 0.5 and the “minimal inhibitory concentration (MIC)” value [6] was 4. For the same molecule, the “minimal inhibitory concentration (MIC)” value [7] was 0.25, the “minimal inhibitory concentration (MIC)” value [8] was 0.25 and the “minimal inhibitory concentration (MIC)” value [9] was 0.5. For the same molecule, the “minimal inhibitory concentration (MIC)” value [10] was 0.5, the “minimal inhibitory concentration (MIC)” value [11] was 0.5 and the “minimal inhibitory concentration (MIC)” value [12] was 0.125. The “minimal inhibitory concentration (MIC)” value [13] was 6.25, the “minimal inhibitory concentration (MIC)” value [14] was 0.097 and the “minimal inhibitory concentration (MIC)” value [15] was less than 0.05. The “minimal inhibitory concentration (MIC)” value [16] was 0.39, the “minimal inhibitory concentration (MIC)” value [17] was 0.78 and the “minimal inhibitory concentration (MIC)” value [18] was 6.25. The “minimal inhibitory concentration (MIC)” value [19] was 6.25 and the mortality at 30 mg/kg [20] was 10%.
